# Source: US10954216B2, “BMP-signal-inhibiting compound” (RIKEN, priority 2016, dated 2021)
# Read-outs that look alike come from different tables or passages of the source.
# Tested on: BMP signal in MDA-231-D-BREFluc/Rluc cells
# Assay: BMP signal inhibitory effect (AlphaScreen SureFire SMAD1 p-Ser463/465, BMP-6 stimulation)
# Assay type: cell-based
# In short: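 MDA-231-D-BREFluc/Rluc cells were pretreated with compound for 2 h at 37° C, then stimulated with BMP-6 for 30 min. SMAD1 p-Ser463/465 in lysates was measured by AlphaScreen SureFire.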
# [1] = BMP-6 stimulated MDA-231-D-BREFluc/Rluc cells, phospho-SMAD1 AlphaScreen, read-out: IC50
IC50 [1],Structure (SMILES),IC50
1.1 nM,"CCn1cc(-c2ccnc(Nc3ccc4c(c3)CCN(C)CC4)n2)c(-c2cccnc2)n1 [Example 115, N-(4-(1-Ethyl-3-(pyridin-3-yl)-1H-pyrazol-4-yl)pyrimidin-2-yl)-3-methyl-2,3,4,5-tetrahydro-1H-benzo [d] azepin-7-amine]",
15.1 nM,"CCn1cc(-c2ccnc(Nc3ccc(C(=O)N4CCN(C)CC4)cc3)n2)c(-c2cccnc2)n1 [Example 116, (4-((4-(1-Ethyl-3-(pyridin-3-yl)-1H-pyrazol-4-yl)pyrimidin-2-yl)amino)phenyl)(4-methylpiperazin-1-yl)methanone]",
,"CCn1cc(-c2ccnc(Nc3ccc(C(=O)N4CC5CCC(C4)N5C)cc3)n2)c(-c2cccnc2)n1 [Example 117, (4-((4-(1-Ethyl-3-(pyridin-3-yl)-1H-pyrazol-4-yl)pyrimidin-2-yl)amino)phenyl) (8-methyl-3,8-diazabicyclo [3.2.1]octan-3-yl)methanone]",12 nM
,"CCn1cc(-c2ccnc(Nc3ccc(C(=O)N4CC5CCC(C4)N5C4CCCC4)cc3)n2)c(-c2cccnc2)n1 [Example 118, (8-Cyclopentyl-3,8-diazabicyclo [3.2.1]octan-3-yl) (4-((4-(1-ethyl-3-(pyridin-3-yl)-1H-pyrazol-4-yl)pyrimidin-2-yl)amino)phenyl) methanone]",8.6 nM
5 nM,"CCn1cc(-c2ccnc(Nc3ccc(C(=O)N4CCN(C(C)C)CC4)cc3)n2)c(-c2cccnc2)n1 [Example 119, (4-((4-(1-Ethyl-3-(pyridin-3-yl)-1H-pyrazol-4-yl)pyrimidin-2-yl)amino)phenyl) (4-isopropylpiperazin-1-yl)methanone]",
6.1 nM,"CCn1cc(-c2ccnc(Nc3ccc(C(=O)N4CCN(C5CCCCC5)CC4)cc3)n2)c(-c2cccnc2)n1 [Example 120, (4-Cyclohexylpiperazin-1-yl) (4-((4-(1-ethyl-3-(pyridin-3-yl)-1H-pyrazol-4-yl)pyrimidin-2-yl)amino)phenyl) methanone]",
19.6 nM,"CC(C)N1CCN(C(=O)c2ccc(Nc3nccc(-c4cn(Cc5ccc(F)cc5)nc4-c4cccnc4)n3)cc2)CC1 [Example 121, (4-((4-(1-(4-Fluorobenzyl)-3-(pyridin-3-yl)-1H-pyrazol-4-yl)pyrimidin-2-yl)amino)phenyl)(4-isopropylpiperazin-1-yl)methanone]",
23.6 nM,"CCn1cc(-c2ccnc(Nc3cccc(C(=O)N4CCN(C(C)C)CC4)c3)n2)c(-c2cccnc2)n1 [Example 122, (3-((4-(1-Ethyl-3-(pyridin-3-yl)-1H-pyrazol-4-yl)pyrimidin-2-yl)amino)phenyl)(4-isopropylpiperazin-1-yl)methanone]",
12.6 nM,"CC(C)N1CCN(C(=O)c2ccc(Nc3nccc(-c4cn(CCc5ccccc5)nc4-c4cccnc4)n3)cc2)CC1 [Example 123, (4-lsopropylpiperazin-1-yl) (4-((4-(1-phenethyl-3-(pyridin-3-yl)-1H-pyrazol-4-yl)pyrimidin-2-yl)amino)phenyl) methanone]",
10 nM,"CCn1cc(-c2ccnc(Nc3ccc4c(c3)CCN(C3COC3)CC4)n2)c(-c2cccnc2)n1 [Example 125, N-(4-(1-Ethyl-3-(pyridin-3-yl)-1H-pyrazol-4-yl)pyrimidin-2-yl)-3-(oxetan-3-yl)-2,3,4,5-tetrahydro-1H-benzo [d] azepin-7-amine]",
32 nM,"CCn1cc(-c2ccnc(Nc3cnn(C4CCN(C5COC5)CC4)c3)n2)c(-c2cccnc2)n1 [Example 128, 4-(1-Ethyl-3-(pyridin-3-yl)-1H-pyrazol-4-yl)-N-(1-(1-(oxetan-3-yl)piperidin-4-yl)-1H-pyrazol-4-yl)pyrimidin-2-amine]",
12.4 nM,"CCn1cc(-c2ccnc(Nc3ccc(N4CCN(C5CCOCC5)CC4)cc3)n2)c(-c2cccnc2)n1 [Example 130, 4-(1-Ethyl-3-(pyridin-3-yl)-1H-pyrazol-4-yl)-N-(4-(4-(tetrahydro-2H-pyran-4-yl)piperazin-1-yl)phenyl)pyrimidin-2-amine]",
16.7 nM,"CC(C)(O)Cn1cc(-c2ccnc(Nc3ccc4c(c3)CCN(C3COC3)C4)n2)c(-c2cccnc2)n1 [Example 131, 2-Methyl-1-(4-(2-((2-(oxetan-3-yl)-1,2,3,4-tetrahydroisoquinolin-6-yl)amino)pyrimidin-4-yl)-3-(pyridin-3-yl)-1H-pyrazol-1-yl)propan-2-ol]",
24.9 nM,CC(C)(O)Cn1cc(-c2ccnc(Nc3ccc(C4CCN(C5COC5)CC4)cc3)n2)c(-c2cccnc2)n1 [Example 132],
18.7 nM,"CCn1cc(-c2ccnc(Nc3ccc(-c4cccnc4)cc3)n2)c(-c2cccnc2)n1 [Example 133, 4-(1-ethyl-3-(pyridin-3-yl)-1H-pyrazol-4-yl)-N-(4-(pyridin-3-yl)phenyl)pyrimidin-2-amine]",
21.8 nM,"CCn1cc(-c2ccnc(Nc3ccc(-c4ccncc4)cc3)n2)c(-c2cccnc2)n1 [Example 134, 4-(1-Ethyl-3-(pyridin-3-yl)-1H-pyrazol-4-yl)-N-(4-(pyridin-4-yl)phenyl)pyrimidin-2-amine]",
13.3 nM,"FC(F)(F)Cn1cc(-c2ccnc(Nc3ccc(N4CCNCC4)cc3)n2)c(-c2cccnc2)n1 [Example 136, N-(4-(piperazin-1-yl)phenyl)-4-(3-(pyridin-3-yl)-1-(2,2,2-trifluoroethyl)-1H-pyrazol-4-yl)pyrimidin-2-amine]",

IC50 [1],Structure (SMILES),IC50
31.9 nM,"c1ccc(Cn2cc(-c3ccnc(Nc4ccc(N5CCNCC5)cc4)n3)c(-c3cccnc3)n2)nc1 [Example 140, N-(4-(Piperazin-1-yl)phenyl)-4-(1-(pyridin-2-ylmethyl)-3-(pyridin-3-yl)-1H-pyrazol-4-yl)pyrimidin-2-amine]",
55.2 nM,"c1cncc(Cn2cc(-c3ccnc(Nc4ccc(N5CCNCC5)cc4)n3)c(-c3cccnc3)n2)c1 [Example 141, N-(4-(Piperazin-1-yl)phenyl)-4-(3-(pyr-3-yl)-1-(pyridin-3-ylmethyl)-1H-pyrazol-4-yl)pyrimidin-2-amine]",
16.4 nM,"CCn1cc(-c2ccnc(Nc3ccc(OC4CNC4)cc3)n2)c(-c2cccnc2)n1 [Example 145, N-(4-(Azetidin-3-yloxy)phenyl)-4-(1-ethyl-3-(pyridin-3-yl)-1H-pyrazol-4-yl)pyrimidin-2-amine]",
,"CCn1cc(-c2ccnc(Nc3ccc(OC4CC5CCC(C4)N5)cc3)n2)c(-c2cccnc2)n1 (stereo not drawn) [Example 146, N-(4-((8-Azabicyclo[3.2.1]octan-3-yl)oxy)phenyl)-4-(1-ethyl-3-(pyridin-3-yl)-1H-pyrazol-4-yl)pyrimidin-2-amine]",13.5 nM
14.1 nM,"CCn1cc(-c2ccnc(Nc3ccc(N4CCC(N)CC4)cc3)n2)c(-c2cccnc2)n1 [Example 147, N-(4-(4-Aminopiperidin-1-yl)phenyl)-4-(1-ethyl-3-(pyridin-3-yl)-1H-pyrazol-4-yl)pyrimidin-2-amine]",
6.5 nM,"CCn1cc(-c2ccnc(Nc3cc(F)c(N4CCNCC4)c(F)c3)n2)c(-c2cccnc2)n1 [Example 153, N-(3,5-Difluoro-4-(piperazin-1-yl)phenyl)-4-(1-ethyl-3-(pyridin-3-yl)-1H-pyrazol-4-yl)pyrimidin-2-amine]",
7 nM,"CCn1cc(-c2ccnc(Nc3ccc(N4CCNCC4)c(C)c3)n2)c(-c2cccnc2)n1 [Example 154, 4-(1-Ethyl-3-(pyridin-3-yl)-1H-pyrazol-4-yl)-N-(3-methyl-4-(piperazin-1-yl)phenyl)pyrimidin-2-amine]",
19.7 nM,"N#Cc1ccccc1Cn1cc(-c2ccnc(Nc3ccc(N4CCNCC4)cc3)n2)c(-c2cccnc2)n1 [Example 157, 2-((4-(2-((4-(Piperazin-1-yl)phenyl)amino)pyrimidin-4-yl)-3-(pyridin-3-yl)-1H-pyrazol-1-yl)methyl)benzonitrile]",
18.5 nM,"CCn1cc(-c2ccnc(Nc3cccc(N4CCNCC4)c3)n2)c(-c2cccnc2)n1 [Example 158, 4-(1-Ethyl-3-(pyridin-3-yl)-1H-pyrazol-4-yl)-N-(3-(piperazin-1-yl)phenyl)pyrimidin-2-amine]",
15.2 nM,"CCn1cc(-c2ccnc(Nc3ccc(CCN4CCNCC4)cc3)n2)c(-c2cccnc2)n1 [Example 159, 4-(1-Ethyl-3-(pyridin-3-yl)-1H-pyrazol-4-yl)-N-(4-(2-(piperazin-1-yl)ethyl)phenyl)-pyrimidin-2-amine]",
15.8 nM,"CCn1cc(-c2ccnc(Nc3ccc(N4CCC[C@H](N)C4)cc3)n2)c(-c2cccnc2)n1 [Example 160, (S)-N-(4-(3-Aminopiperidin-1-yl)phenyl)-4-(1-ethyl-3-(pyridin-3-yl)-1H-pyrazol-4-yl)pyrimidin-2-amine]",
12.6 nM,"CCn1cc(-c2ccnc(Nc3ccc(N4CCC[C@@H](N)C4)cc3)n2)c(-c2cccnc2)n1 [Example 161, (R)-N-(4-(3-Aminopiperidin-1-yl)phenyl)-4-(1-ethyl-3-(pyridin-3-yl)-1H-pyrazol-4-yl)pyrimidin-2-amine]",
11.4 nM,"CCn1cc(-c2ccnc(Nc3ccc(OC4CCNCC4F)cc3)n2)c(-c2cccnc2)n1 (stereo not drawn) [Example 164, 4-(1-Ethyl-3-(pyridin-3-yl)-1H-pyrazol-4-yl)-N-(4-((3-fluoropiperidin-4-yl)oxy)phenyl) pyrimidin-2-amine]",
40 nM,"CCn1cc(-c2nc(Nc3ccc(N4CCNCC4)cc3)ncc2F)c(-c2cccnc2)n1 [Example 166, 4-(1-Ethyl-3-(pyridin-3-yl)-1H-pyrazol-4-yl)-5-fluoro-N-(4-(piperazin-1-yl)phenyl)pyrimidin-2-amine]",
22.7 nM,"CCn1cc(-c2ccnc(Nc3ccc4c(c3)NCCC4)n2)c(-c2cccnc2)n1 [Example 170, N-(4-(1-Ethyl-3-(pyridin-3-yl)-1H-pyrazol-4-yl)pyrimidin-2-yl)-1,2,3,4-tetrahydroquinolin-7-amine]",
38.3 nM,"CCn1cc(-c2ccnc(Nc3ccc4c(c3)CCN(CC(=O)O)C4)n2)c(-c2cccnc2)n1 [Example 172, 2-(6-((4-(1-ethyl-3-(pyridin-3-yl)-1H-pyrazol-4-yl)pyrimidin-2-yl)amino)-3,4-dihydroisoquinolin-2(1H)-yl)acetic acid]",
